Measured values from ChEMBL document CHEMBL1833834, “Clonal Rett Syndrome cell lines to test compounds for activation of wild-type MeCP2 expression” (Bioorg Med Chem Lett, 2011).
Activity calls are given as the source filed them. The calls are words filed in the database; no cut-off is given here.

What was measured:
Type in all cases: functional, cell-based
[1] = Reactivation of MeCp2 […] expression in human GM11272 cells at 1 to 100 nM by PCR method
[2] = Reactivation of MeCp2 […] expression in human GM11272 cells after 6 days by PCR method
[3] = Reactivation of MeCp2 […] expression in human GM11272 cells at 10 to 100 nM by PCR method
[4] = Reactivation of MeCp2 […] expression in human GM11272 cells at 1 to 10000 nM by PCR method

| Compound | Activity [1] | Activity [2] | other results |
| --- | --- | --- | --- |
| Cc1[nH]c2ccccc2c1CCNCc1ccc(/C=C/C(=O)NO)cc1 | inactive | – | – |
| Nc1ncn([C@H]2C[C@H](O)[C@@H](CO)O2)c(=O)n1 | inactive | inactive | – |
| Nc1ccccc1NC(=O)c1ccc(CNC(=O)OCc2cccnc2)cc1 | – | inactive | – |
| O=C(O)[C@H](Cc1c[nH]c2ccccc12)N1C(=O)c2ccccc2C1=O | – | – | Activity [3]: inactive |
| CCC(=O)CCCCC[C@@H]1NC(=O)[C@H]2CCCCN2C(=O)[C@H]([C@@H](C)CC)NC(=O)[C@H](Cc2cn(OC)c3ccccc23)NC1=O | – | inactive | – |
| O=C(CCCCCCC(=O)Nc1ccccc1)NO | – | – | Activity [3]: inactive |
| CCCC(CCC)C(=O)O | – | – | Activity [4]: inactive |
| CC(/C=C/C(=O)NO)=C\[C@@H](C)C(=O)c1ccc(N(C)C)cc1 | inactive | – | – |
| O=c1ncccn1[C@@H]1O[C@H](CO)[C@@H](O)[C@H]1O | inactive | – | – |
